The record followed here is patent US11912686B2 (Gilead Sciences, Inc., priority 2020, dated 2024).

Molecules are shown by their SMILES.

What is called EC50 is the midpoint of the concentration-response curve.

For the assay, the target named is human LPAR1 (Homo sapiens (Human), UniProt Q92633). In words: LPAR1 intracellular calcium mobilization assay (antagonist mode, FLIPR). The format is cell-based. Conditions: CHO-K1 EDG2 cells expressing human LPAR1, LPA 18:2 at EC80 (100 nM), test compound 0.5 nM to 10 μM. For orientation: A change in cytosolic calcium serves as a functional read-out for many receptors and channels.
Sequence of human LPAR1 (Q92633 whole entry): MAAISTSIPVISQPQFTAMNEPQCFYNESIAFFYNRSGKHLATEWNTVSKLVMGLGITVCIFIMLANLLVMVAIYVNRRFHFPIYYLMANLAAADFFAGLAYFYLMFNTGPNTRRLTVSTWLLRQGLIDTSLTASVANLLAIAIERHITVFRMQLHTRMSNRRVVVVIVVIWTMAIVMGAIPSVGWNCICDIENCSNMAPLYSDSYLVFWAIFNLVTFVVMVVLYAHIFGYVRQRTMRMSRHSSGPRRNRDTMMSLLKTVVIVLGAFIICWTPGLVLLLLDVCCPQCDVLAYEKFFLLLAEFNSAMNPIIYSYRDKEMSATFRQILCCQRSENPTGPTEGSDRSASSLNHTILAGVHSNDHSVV
For `C[C@@H](OC(=O)Nc1c(-c2ccc(NC(=O)C3(C(N)=O)CC3)cn2)nnn1C)c1cccnc1Cl` [Compound 92, (R)-1-(2-chloropyridin-3-yl)ethyl (4-(5-(1-carbamoylcyclopropane-1-carboxamido)pyridin-2-yl)-1-methyl-1H-1,2,3-triazol-5-yl)carbamate], the EC50 stood at 601 nM. To `C[C@@H](OC(=O)Nc1c(-c2ccc(NC(=O)c3cc(F)nc(F)c3)cn2)nnn1C)c1cc(F)cnc1F` [Compound 244, (R)-1-(2,5-difluoropyridin-3-yl)ethyl (4-(5-(2,6-difluoroisonicotinamido)pyridin-2-yl)-1-methyl-1H-1,2,3-triazol-5-yl)carbamate] belongs 131 nM. To `C[C@@H](OC(=O)Nc1c(-c2ccc(NC(=O)c3cnnc(C(F)(F)F)c3)cn2)nnn1C)c1cc(F)cnc1F` [Compound 259, (R)-1-(2,5-difluoropyridin-3-yl)ethyl (1-methyl-4-(5-(6-(trifluoromethyl)pyridazine-4-carboxamido)pyridin-2-yl)-1H-1,2,3-triazol-5-yl)carbamate] belongs 101 nM. Then `Cc1cnoc1C(=O)Nc1ccc(-c2nnn(C)c2NC(=O)O[C@H](C)c2cc(F)cnc2F)nc1` [Compound 227, (R)-1-(2,5-difluoropyridin-3-yl)ethyl (1-methyl-4-(5-(4-methylisoxazole-5-carboxamido)pyridin-2-yl)-1H-1,2,3-triazol-5-yl)carbamate], with 206 nM; and `CC(=O)Nc1cnc(-c2nnn(C)c2NC(=O)O[C@H](C)c2cccnc2Cl)c(F)c1` [Compound 9, (R)-1-(2-chloropyridin-3-yl)ethyl (4-(5-acetamido-3-fluoropyridin-2-yl)-1-methyl-1H-1,2,3-triazol-5-yl)carbamate], with 2700 nM.

Regarding `Cc1ncc(F)cc1[C@@H](C)OC(=O)Nc1c(-c2ccc(NC(=O)C3(C#N)CC3)cn2)nnn1C` [Compound 177, (R)-1-(5-fluoro-2-methylpyridin-3-yl)ethyl (4-(5-(1-cyanocyclopropane-1-carboxamido)pyridin-2-yl)-1-methyl-1H-1,2,3-triazol-5-yl)carbamate], the half-maximal effective concentration (EC50) was 48.3 nM. Then `C[C@@H](OC(=O)Nc1c(-c2ccc(NC(=O)[C@H]3C[C@@H]3C#N)cn2)nnn1C)c1cccnc1Cl` [Compound 50, (R)-1-(2-chloropyridin-3-yl)ethyl (4-(5-((1S,2S)-2-cyanocyclopropane-1-carboxamido)pyridin-2-yl)-1-methyl-1H-1,2,3-triazol-5-yl)carbamate], with 1760 nM. Then `C[C@@H](OC(=O)Nc1c(-c2ccc(NC(=O)C(F)(F)F)cc2)nnn1C)c1cccc(F)c1` [Compound 1, (R)-1-(3-fluorophenyl)ethyl (1-methyl-4-(4-(2,2,2-trifluoroacetamido)phenyl)-1H-1,2,3-triazol-5-yl)carbamate], with 6520 nM; and `C[C@@H](OC(=O)Nc1c(-c2ccc(NC(=O)C3(C)CC(F)(F)C3)cn2)nnn1C)c1cccnc1Cl` [Compound 144, (R)-1-(2-chloropyridin-3-yl)ethyl (4-(5-(3,3-difluoro-1-methylcyclobutane-1-carboxamido)pyridin-2-yl)-1-methyl-1H-1,2,3-triazol-5-yl)carbamate], with 36.1 nM.

Regarding `CC(C)COC(=O)Nc1ccc(-c2nnn(C)c2NC(=O)O[C@H](C)c2cccnc2Cl)nc1` [Compound 22, (R)-1-(2-chloropyridin-3-yl)ethyl (4-(5-((isobutoxycarbonyl)amino)pyridin-2-yl)-1-methyl-1H-1,2,3-triazol-5-yl)carbamate], the EC50 turned out to be 43.4 nM. Then `C[C@@H](OC(=O)Nc1c(-c2ccc(NC(=O)C3CC4(CC(C#N)C4)C3)cn2)nnn1C)c1cccnc1Cl` (stereo partly drawn) [Compound 80, (R)-1-(2-chloropyridin-3-yl)ethyl (4-(5-(6-cyanospiro[3.3]heptane-2-carboxamido)pyridin-2-yl)-1-methyl-1H-1,2,3-triazol-5-yl)carbamate], with 109 nM.

For the compound `C[C@@H](OC(=O)Nc1c(-c2ncc(NC(=O)[C@@]3(C#N)C[C@@H]3C(F)F)cn2)nnn1C)c1cc(F)cnc1Cl` [Compound 287, (R)-1-(2-chloro-5-fluoropyridin-3-yl)ethyl (4-(5-((1S,2S)-1-cyano-2-(difluoromethyl)cyclopropane-1-carboxamido)pyrimidin-2-yl)-1-methyl-1H-1,2,3-triazol-5-yl)carbamate], the EC50 was determined as 1430 nM. Then `C[C@@H](OC(=O)Nc1c(-c2ccc(NC(=O)C34CC(C#N)(C3)C4)cn2)nnn1C)c1cccnc1F` [Compound 174, (R)-1-(2-fluoropyridin-3-yl)ethyl (4-(5-(3-cyanobicyclo[1.1.1]pentane-1-carboxamido)pyridin-2-yl)-1-methyl-1H-1,2,3-triazol-5-yl)carbamate], with 107 nM. In the case of `C[C@@H](OC(=O)Nc1c(-c2ccc(NC(=O)[C@H]3C[C@@H]3C)cn2)nnn1C)c1cc(F)cnc1F` (mixture of isomers) [Compound 207, (R)-1-(2,5-difluoropyridin-3-yl)ethyl (1-methyl-4-(5-((1RS,2RS)-2-methylcyclopropane-1-carboxamido)pyridin-2-yl)-1H-1,2,3-triazol-5-yl)carbamate], the EC50 was 41.2 nM. To `C[C@@H](OC(=O)Nc1c(-c2ccc(NC(=O)[C@@]3(C#N)C[C@@H]3C(F)F)cn2)nnn1C)c1cc(F)cnc1F` [Compound 246, (R)-1-(2,5-difluoropyridin-3-yl)ethyl (4-(5-((1S,2S)-1-cyano-2-(difluoromethyl)cyclopropane-1-carboxamido)pyridin-2-yl)-1-methyl-1H-1,2,3-triazol-5-yl)carbamate] belongs 103 nM.

In the case of `C[C@@H](O)C(=O)Nc1ccc(-c2nnn(C)c2NC(=O)O[C@H](C)c2cccnc2Cl)nc1` [Compound 124, (R)-1-(2-chloropyridin-3-yl)ethyl (4-(5-((R)-2-hydroxypropanamido)pyridin-2-yl)-1-methyl-1H-1,2,3-triazol-5-yl)carbamate], the half-maximal effective concentration (EC50) turned out to be 3630 nM. Consider `CC(=O)Nc1ccc(-c2nnn(C)c2NC(=O)O[C@H](C)c2cccnc2Cl)nc1` [Compound 23, (R)-1-(2-chloropyridin-3-yl)ethyl (4-(5-acetamidopyridin-2-yl)-1-methyl-1H-1,2,3-triazol-5-yl)carbamate], for which the EC50 was found to be 1100 nM. To `CC(=O)Nc1ccc(-c2nnn(C)c2NC(=O)O[C@H](C)c2cccnc2Cl)nc1F` [Compound 5, [(1R)-1-(2-chloro-3-pyridyl)ethyl] N-[5-(5-acetamido-6-fluoro-2-pyridyl)-3-methyl-triazol-4-yl]carbamate] belongs 1510 nM.

In the case of `C[C@@H](OC(=O)Nc1c(-c2ncc(NC(=O)C3(C#N)CC3)cn2)nnn1C)c1cc(F)cnc1Cl` [Compound 329, (R)-1-(2-chloro-5-fluoropyridin-3-yl)ethyl (4-(5-(1-cyanocyclopropane-1-carboxamido)pyrimidin-2-yl)-1-methyl-1H-1,2,3-triazol-5-yl)carbamate], the EC50 was determined as 749 nM.

For `C[C@@H](OC(=O)Nc1c(-c2ccc(NC(=O)C3(c4cccnc4)CC3)cn2)nnn1C)c1cccnc1Cl` [Compound 94, (R)-1-(2-chloropyridin-3-yl)ethyl (1-methyl-4-(5-(1-(pyridin-3-yl)cyclopropane-1-carboxamido)pyridin-2-yl)-1H-1,2,3-triazol-5-yl)carbamate], the EC50 is 4820 nM. Then `C[C@@H](OC(=O)Nc1c(-c2ccc(NC(=O)OC(C)(C)C)cn2)nnn1C)c1cccnc1Cl` [Compound 11, (R)-1-(2-chloropyridin-3-yl)ethyl (4-(5-((tert-butoxycarbonyl)amino)pyridin-2-yl)-1-methyl-1H-1,2,3-triazol-5-yl)carbamate], with 731 nM. To `Cc1cnc(F)cc1C(C)OC(=O)Nc1c(-c2ccc(NC(=O)C3(C#N)CC3)cn2)nnn1C` (stereo not shown) [Compound 27, 1-(2-fluoro-5-methylpyridin-4-yl)ethyl (4-(5-(1-cyanocyclopropane-1-carboxamido)pyridin-2-yl)-1-methyl-1H-1,2,3-triazol-5-yl)carbamate] belongs 1280 nM.

Consider `C[C@@H](OC(=O)Nc1c(-c2ccc(NC(=O)C3(C)CC3)cn2)nnn1C)c1cccnc1Cl` [Compound 32, (R)-1-(2-chloropyridin-3-yl)ethyl (1-methyl-4-(5-(1-methylcyclopropane-1-carboxamido)pyridin-2-yl)-1H-1,2,3-triazol-5-yl)carbamate], for which the EC50 was 799 nM. To `C[C@@H](OC(=O)Nc1c(-c2ccc(NC(=O)C3CC(F)(F)C3)cn2)nnn1C)c1cccnc1Cl` [Compound 37, (R)-1-(2-chloropyridin-3-yl)ethyl (4-(5-(3,3-difluorocyclobutane-1-carboxamido)pyridin-2-yl)-1-methyl-1H-1,2,3-triazol-5-yl)carbamate] belongs 54.6 nM. Then `C[C@@H](OC(=O)Nc1c(-c2ccc(NC(=O)C3(C#N)CC(F)(F)C3)cn2)nnn1C)c1cccnc1Cl` [Compound 186, (R)-1-(2-chloropyridin-3-yl)ethyl (4-(5-(1-cyano-3,3-difluorocyclobutane-1-carboxamido)pyridin-2-yl)-1-methyl-1H-1,2,3-triazol-5-yl)carbamate], with 100 nM. Take `Cc1cc(C2(C(=O)Nc3ccc(-c4nnn(C)c4NC(=O)O[C@H](C)c4cccnc4Cl)nc3)CC2)on1` [Compound 160, (R)-1-(2-chloropyridin-3-yl)ethyl (1-methyl-4-(5-(1-(3-methylisoxazol-5-yl)cyclopropane-1-carboxamido)pyridin-2-yl)-1H-1,2,3-triazol-5-yl)carbamate]: the EC50 worked out at 1450 nM. Regarding `C[C@@H](OC(=O)Nc1c(-c2ccc(NC(=O)C3(C#N)CC4(CCC4)C3)cn2)nnn1C)c1cccnc1Cl` [Compound 79, (R)-1-(2-chloropyridin-3-yl)ethyl (4-(5-(2-cyanospiro[3.3]heptane-2-carboxamido)pyridin-2-yl)-1-methyl-1H-1,2,3-triazol-5-yl)carbamate], the 50% effective concentration (EC50) was determined as 16 nM.

For the compound `C[C@@H](OC(=O)Nc1c(-c2ccc(NC(=O)c3ccc(C(F)(F)F)nc3)c(F)n2)nnn1C)c1cccnc1Cl` [Compound 315, (R)-1-(2-chloropyridin-3-yl)ethyl (4-(6-fluoro-5-(6-(trifluoromethyl)nicotinamido)pyridin-2-yl)-1-methyl-1H-1,2,3-triazol-5-yl)carbamate], the concentration giving a half-maximal response (EC50) was found to be 12.7 nM.
